Experimental data reported in ChEMBL document CHEMBL1201862, “PubChem BioAssay data set” (2004).
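A five-concentration, 48-hour dose response in 96-well plates underlies each endpoint, interpolated linearly between surrounding concentrations. The concentration for 50% growth inhibition is given as GI50.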 The source made the active and inactive calls. Rule as the data show it: active = GI50 up to about 1.1 µM and inactive = higher.

Legend:
Assay in all cases: inhibition of tumour cell growth, NCI panel, 48 h
[1] = test system: HCT-116
[2] = test system: CCRF-CEM
[3] = test system: RPMI-8226
[4] = test system: NCI-H522
[5] = test system: UO-31
[6] = test system: SNB-19
[7] = test system: OVCAR-4
[8] = test system: EKVX
[9] = test system: SF-268
[10] = test system: OVCAR-5
[11] = test system: OVCAR-3
[12] = test system: CAKI-1
[13] = test system: K562
[14] = test system: U-251
[15] = test system: A498
[16] = test system: SNB-75
[17] = test system: XF498
[18] = test system: HT-29
[19] = test system: OVCAR-8
[20] = test system: SR
[21] = test system: DMS-273
[22] = test system: HCT-15
[23] = test system: HOP-62
[24] = test system: HCC 2998
[25] = test system: HOP-18
[26] = test system: M14
[27] = test system: SW-620
[28] = test system: SF-295
[29] = test system: UACC-257
[30] = test system: HL-60
[31] = test system: MOLT-4
[32] = test system: SF-539
[33] = test system: UACC-62
[34] = test system: IGROV-1
[35] = test system: NCI-H460
[36] = test system: NCI-H23
[37] = test system: KM12
[38] = test system: HOP-92
[39] = test system: DMS-114
[40] = test system: KM-20L2
[41] = test system: TK-10
[42] = test system: SN12C
[43] = test system: SK-MEL-5
[44] = test system: DLD-1
[45] = test system: ACHN
[46] = test system: M19-MEL
[47] = test system: SNB-78
[48] = test system: SK-OV-3
[49] = test system: LXFL 529
[50] = test system: A549
[51] = test system: 786-0
[52] = test system: SK-MEL-28
[53] = test system: LOX IMVI
[54] = test system: Malme-3M
[55] = test system: RXF 393
[56] = test system: SK-MEL-2
[57] = test system: NCI-H226
[58] = test system: COLO 205

Measured: GI50

CCN(CC)CCC(=O)N1CCc2c([nH]c3ccccc23)C1c1cccnc1 (stereo not given)
> 100 µM: [22]
inactive: [1] > 100 µM | [2] > 100 µM | [3] > 100 µM | [4] > 100 µM | [5] > 100 µM | [6] > 100 µM | [7] > 100 µM | [8] > 100 µM | [9] > 100 µM | [10] > 100 µM | [11] > 100 µM | [12] > 100 µM | [13] > 100 µM | [14] > 100 µM | [15] > 100 µM | [16] > 100 µM | [17] > 100 µM | [18] > 100 µM | [19] > 100 µM | [20] > 100 µM | [21] > 100 µM | [23] > 100 µM | [24] > 100 µM | [25] > 100 µM | [26] > 100 µM | [27] > 100 µM | [28] > 100 µM | [29] > 100 µM | [30] > 100 µM | [31] > 100 µM | [32] > 100 µM | [33] > 100 µM | [34] > 100 µM | [35] > 100 µM | [36] > 100 µM | [37] > 100 µM | [38] 68.9 µM | [39] > 100 µM | [40] > 100 µM | [41] > 100 µM | [42] > 100 µM | [43] > 100 µM | [44] > 100 µM | [45] > 100 µM | [46] > 100 µM | [47] > 100 µM | [48] > 100 µM | [49] > 100 µM | [50] > 100 µM | [51] > 100 µM | [52] > 100 µM | [53] > 100 µM

COc1c(Cl)c(Cl)c(OC)c2c1C(=O)C=CC2=O
inactive: [1] 17.8 µM | [2] 3.83 µM | [54] 15.1 µM | [3] 18.2 µM | [4] 17.6 µM | [5] 17.8 µM | [6] 32.1 µM | [7] 15.3 µM | [8] 17.4 µM | [9] 15.6 µM | [10] 35.5 µM | [11] 17.3 µM | [12] 22.9 µM | [13] 7.85 µM | [14] 20.7 µM | [15] > 100 µM | [16] 21.4 µM | [17] 16.9 µM | [18] 29.9 µM | [55] 17.1 µM | [19] 17.1 µM | [20] 10.4 µM | [21] 15.2 µM | [24] 60.3 µM | [25] 44.5 µM | [56] 17.3 µM | [26] 19.6 µM | [27] 16.8 µM | [28] 18.5 µM | [29] 18.1 µM | [30] 2.17 µM | [31] 2.9 µM | [32] 20 µM | [33] 15.6 µM | [34] 24.7 µM | [35] 37.8 µM | [36] 40.4 µM | [37] 17.5 µM | [38] 15.3 µM | [39] 16 µM | [40] 68.2 µM | [41] 20.2 µM | [42] 23.4 µM | [43] 34.9 µM | [44] 14.5 µM | [45] 15.1 µM | [46] 18 µM | [47] 13 µM | [48] 76.7 µM | [49] 15.8 µM | [50] 88.7 µM | [51] 17.1 µM | [57] 33.5 µM | [52] 17.7 µM | [53] 15.9 µM | [58] 16.2 µM
35.6 µM: [22]
